Experimental findings from patent US6491922B1, “Methods and compounds for treating autoimmune and vascular disease” (Cornell Research Foundation, Inc., priority 1996, dated 2002) are described below.

For test [1], the system named is human umbilical vein endothelial cells. Put plainly: Competition for LPG binding by LPG fragments (FACS). Conditions: for competition with intact LPG for binding to endothelial cells: fragment 10 μM prior to intact LPG 1 μM; for Percent Inhibition: pretreatment with fragment 10 μM 15 min before intact LPG 1 μM, 15 min, 37° C., means ± SE of 3 experiments. The method, then:
To address whether the lyso-PI and core-PI fragments may mediate cell binding, an indirect approach was used. Endothelial cells (10^6/ml) obtained by mild collagenase treatment were first incubated with either lyso-PI or core-PI (10 μM, 15 min 37° C.) prior to the addition of intact LPG (1 μM, 15 min 37° C.); PGM and PG (10 μM, 15 min 37° C.) were used as controls. Cells were washed, after incubation with anti-LPG mAb as described above (Indirect Immunofluorescence) and subjected to FACS analysis by binding of the intact LPG.

Test [2] concerns endothelial cells. Put plainly: Endothelial adhesion to monocytes (MM6) assay. Conditions: for inhibition of endotoxin-mediated endothelial adhesion to monocytes by LPG fragments: fragments 1-10 μM (2 μM, 1 h in FIG. 21), endotoxin 10 ng/ml 4 h.
Experimental: Endothelial cell were isolated from human umbilical veins by an established method as described. […] In all experiments, 2-4 passages of subcultured endothelial cells were used and were grown on fibronectin-precoated 96-well plates for 2-3 days prior to use.
On the day of the experiment, endothelial cells were treated with endotoxin (E. coli, J5, 10 ng/ml) for 4 h. MM6 (1×10^5 cells) were subsequently added to the endotoxin-stimulated endothelial cells. Monocyte adhesion was performed for 20 min at 37° C. Unbound MM6 cells were removed by washing (3×). Adhesion of MM6 onto endothelium was quantitated by counting the bound MM6 cells under a microscope. […] The values of triplicates were averaged, and variations between triplicates were <5%. […] For experiments to examine if LPG could inhibit endotoxin-mediated monocyte adhesion, the endothelial cells were first preincubated with LPG (2 μM) for 1-2 h at 37° C. prior to the addition of endotoxin.
Test [3] concerns endothelial cells. The test can be described thus: ^3H-lyso-PI binding to endothelial cells. Conditions: 1 μM, 45 min, 25° C.; 10^6 cells per ml. Also noted: species or system human. The method, then: To evaluate whether lyso-PI may directly bind to endothelial cells, endothelial cells (10^6 per ml) were incubated with ^3H-lyso-PI (1 μM [specific activity, ˜10,000 cpm/nmole], 45 min, 25° C.). As a control, endothelial cells were pretreated with LPG (20 μM, 15 min, 25° C.) before the incubation with ^3H-lyso-PI. Following incubation, the cell suspension was layed onto silicone oil (Silicones FC-50, General Electric, Waterford, N.Y.) and cell-bound ^3H-lyso-PI was separated from free-^3H-lyso-PI by centrifugation (10,000 g, 10 min, room temperature). The amount of ^3H-lyso-PI in the cell pellet and in the supernatant were solubilized in Ecoscint (National Diagnostics, Highland Park, N.J.) and quantitated by a β-emission counter (Beckman Instruments, Palo Alto, Calif.).

As for “lyso-alkyl-phosphatidylinositol [lyso-PI]”, in test [1], the “competition with intact LPG for binding to endothelial cells” value is roughly 30% and the “Percent Inhibition” value was 29.9 ± 6.0%. Also, the “inhibition of endotoxin-mediated endothelial adhesion to monocytes by LPG fragments” value in the test on endothelial cells [2] is reported as “did not inhibit”.
Regarding “phosphosaccharide core-lyso-alkyl-phosphatidylinositol [core-PI]”, in test [1], the “competition with intact LPG for binding to endothelial cells” value was roughly 30% and the “Percent Inhibition” value is 32.0 ± 5.0%. Moreover, the “inhibitory effect of co-addition of fragments” value with endothelial cells [2] (co-addition of PG (2 μM) and core-PI (2 μM)) is given as “No additive inhibitory effect”. Also, the “inhibition of endotoxin-mediated endothelial adhesion to monocytes by LPG fragments” value in the test on endothelial cells [2] is on record as “did not inhibit”.
Consider “^3H-Lyso-alkyl-PI [^3H-lyso-PI, reference compound]”, for which the “^3H-lyso-PI bound, of the total input ^3H-lyso-PI” value with endothelial cells [3] was found to be 32.2±3.1%.
